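96-well plates; 48 h exposure; 5 concentrations. Endpoints by linear interpolation between flanking doses. Not reached: highest tested concentration assigned. Abbreviation: GI50, concentration required for 50% inhibition of growth. At the TGI there is no net growth.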
Tests used:
Experiment in all cases: NCI tumour cell line growth inhibition, 48 h; in the data active means GI50 below about 0.43 µM; inactive means the rest
786-0 renal = system: 786-0 renal
A549 NSCLC = system: A549 NSCLC
ACHN renal = system: ACHN renal
CCRF-CEM leukemia = system: CCRF-CEM leukemia
COLO 205 colon = system: COLO 205 colon
DMS 114 small cell lung = system: DMS 114 small cell lung
EKVX NSCLC = system: EKVX NSCLC
HCC-2998 colon = system: HCC-2998 colon
HCT-15 colon = system: HCT-15 colon
HL-60(TB) leukemia = system: HL-60(TB) leukemia
HOP-62 NSCLC = system: HOP-62 NSCLC
HT29 colon = system: HT29 colon
IGROV1 ovarian = system: IGROV1 ovarian
K-562 leukemia = system: K-562 leukemia
KM20L2 colon = system: KM20L2 colon
LXFL 529 NSCLC = system: LXFL 529 NSCLC
M14 melanoma = system: M14 melanoma
M19-MEL melanoma = system: M19-MEL melanoma
MOLT-4 leukemia = system: MOLT-4 leukemia
NCI-H522 lung = system: NCI-H522 lung
OVCAR-3 ovarian = system: OVCAR-3 ovarian
OVCAR-8 ovarian = system: OVCAR-8 ovarian
RPMI-8226 leukemia = system: RPMI-8226 leukemia
RXF-631 renal = system: RXF-631 renal
SF-268 CNS = system: SF-268 CNS
SF-295 CNS = system: SF-295 CNS
SK-MEL-28 melanoma = system: SK-MEL-28 melanoma
SK-OV-3 ovarian = system: SK-OV-3 ovarian
SNB-19 CNS = system: SNB-19 CNS
SNB-75 CNS = system: SNB-75 CNS
SR leukemia = system: SR leukemia
SW-620 colon = system: SW-620 colon
U251 CNS = system: U251 CNS
UACC-62 melanoma = system: UACC-62 melanoma
UO-31 renal = system: UO-31 renal
DLD-1 colon = system: DLD-1 colon
DMS 273 small cell lung = system: DMS 273 small cell lung
HCT-116 colon = system: HCT-116 colon
HOP-18 NSCLC = system: HOP-18 NSCLC
HOP-92 NSCLC = system: HOP-92 NSCLC
KM12 colon = system: KM12 colon
LOX IMVI melanoma = system: LOX IMVI melanoma
MALME-3M melanoma = system: MALME-3M melanoma
NCI-H226 lung = system: NCI-H226 lung
NCI-H23 lung = system: NCI-H23 lung
NCI-H460 lung = system: NCI-H460 lung
OVCAR-4 ovarian = system: OVCAR-4 ovarian
OVCAR-5 ovarian = system: OVCAR-5 ovarian
RXF 393 renal = system: RXF 393 renal
SF-539 CNS = system: SF-539 CNS
SK-MEL-2 melanoma = system: SK-MEL-2 melanoma
SK-MEL-5 melanoma = system: SK-MEL-5 melanoma
SN12C renal = system: SN12C renal
SNB-78 CNS = system: SNB-78 CNS
TK-10 renal = system: TK-10 renal
UACC-257 melanoma = system: UACC-257 melanoma
XF 498 CNS = system: XF 498 CNS
A498 renal = system: A498 renal
CAKI-1 renal = system: CAKI-1 renal

CC1=C(C)C(=O)C2=C(OCCCO2)C1=O
32 µM: TGI (OVCAR-3 ovarian)
31 µM: TGI (EKVX NSCLC)
54 µM: TGI (K-562 leukemia)
32.9 µM: TGI (OVCAR-8 ovarian)
44.9 µM: TGI (SR leukemia)
36.1 µM: TGI (RPMI-8226 leukemia)
8.11 µM: TGI (CCRF-CEM leukemia)
5.33 µM: TGI (MOLT-4 leukemia)
30.7 µM: TGI (M14 melanoma)
30.1 µM: TGI (UO-31 renal)
33.3 µM: TGI (786-0 renal) | TGI (IGROV1 ovarian) | TGI (M19-MEL melanoma)
32.4 µM: TGI (ACHN renal)
31.5 µM: TGI (RXF-631 renal)
31.2 µM: TGI (SW-620 colon)
33.5 µM: TGI (DMS 114 small cell lung)
33.1 µM: TGI (NCI-H522 lung)
51.7 µM: TGI (SNB-75 CNS)
19 µM: TGI (HL-60(TB) leukemia)
46.3 µM: TGI (HT29 colon)
70.9 µM: TGI (SF-295 CNS)
33.2 µM: TGI (SF-268 CNS)
32.7 µM: TGI (UACC-62 melanoma)
31.9 µM: TGI (LXFL 529 NSCLC)
> 100 µM: TGI (A549 NSCLC) | TGI (COLO 205 colon) | TGI (HCC-2998 colon) | TGI (HCT-15 colon) | TGI (HOP-62 NSCLC) | TGI (KM20L2 colon) | TGI (SK-MEL-28 melanoma) | TGI (SK-OV-3 ovarian) | TGI (SNB-19 CNS) | TGI (U251 CNS)

CN(C)c1ccc2c(c1)CN1C(=O)c3ccccc3C1=N2
inactive: GI50 (786-0 renal) > 100 µM | GI50 (A549 NSCLC) > 100 µM | GI50 (ACHN renal) > 100 µM | GI50 (COLO 205 colon) > 100 µM | GI50 (DLD-1 colon) > 100 µM | GI50 (DMS 114 small cell lung) > 100 µM | GI50 (DMS 273 small cell lung) > 100 µM | GI50 (HCT-116 colon) > 100 µM | GI50 (HCT-15 colon) > 100 µM | GI50 (HL-60(TB) leukemia) > 100 µM | GI50 (HOP-18 NSCLC) 6.02 µM | GI50 (HOP-92 NSCLC) > 100 µM | GI50 (HT29 colon) > 100 µM | GI50 (IGROV1 ovarian) > 100 µM | GI50 (KM12 colon) > 100 µM | GI50 (LOX IMVI melanoma) > 100 µM | GI50 (LXFL 529 NSCLC) > 100 µM | GI50 (M14 melanoma) > 100 µM | GI50 (MALME-3M melanoma) > 100 µM | GI50 (MOLT-4 leukemia) > 100 µM | GI50 (NCI-H226 lung) > 100 µM | GI50 (NCI-H23 lung) > 100 µM | GI50 (NCI-H460 lung) > 100 µM | GI50 (NCI-H522 lung) 36.6 µM | GI50 (OVCAR-3 ovarian) > 100 µM | GI50 (OVCAR-4 ovarian) > 100 µM | GI50 (OVCAR-5 ovarian) > 100 µM | GI50 (OVCAR-8 ovarian) > 100 µM | GI50 (RPMI-8226 leukemia) > 100 µM | GI50 (RXF 393 renal) > 100 µM | GI50 (SF-295 CNS) > 100 µM | GI50 (SF-539 CNS) > 100 µM | GI50 (SK-MEL-2 melanoma) > 100 µM | GI50 (SK-MEL-28 melanoma) > 100 µM | GI50 (SK-MEL-5 melanoma) > 100 µM | GI50 (SK-OV-3 ovarian) > 100 µM | GI50 (SN12C renal) > 100 µM | GI50 (SNB-19 CNS) > 100 µM | GI50 (SNB-75 CNS) > 100 µM | GI50 (SNB-78 CNS) > 100 µM | GI50 (SR leukemia) > 100 µM | GI50 (SW-620 colon) > 100 µM | GI50 (TK-10 renal) > 100 µM | GI50 (U251 CNS) > 100 µM | GI50 (UACC-257 melanoma) > 100 µM | GI50 (UACC-62 melanoma) > 100 µM | GI50 (UO-31 renal) > 100 µM | GI50 (XF 498 CNS) > 100 µM
> 100 µM: TGI (786-0 renal) | TGI (A549 NSCLC) | TGI (ACHN renal) | TGI (COLO 205 colon) | TGI (DLD-1 colon) | TGI (DMS 114 small cell lung) | TGI (DMS 273 small cell lung) | TGI (HCT-116 colon) | TGI (HCT-15 colon) | TGI (HL-60(TB) leukemia) | TGI (HOP-18 NSCLC) | TGI (HOP-92 NSCLC) | TGI (HT29 colon) | TGI (IGROV1 ovarian) | TGI (KM12 colon) | TGI (LOX IMVI melanoma) | TGI (LXFL 529 NSCLC) | TGI (M14 melanoma) | TGI (MALME-3M melanoma) | TGI (MOLT-4 leukemia) | TGI (NCI-H226 lung) | TGI (NCI-H23 lung) | TGI (NCI-H460 lung) | TGI (NCI-H522 lung) | TGI (OVCAR-3 ovarian) | TGI (OVCAR-4 ovarian) | TGI (OVCAR-5 ovarian) | TGI (OVCAR-8 ovarian) | TGI (RPMI-8226 leukemia) | TGI (RXF 393 renal) | TGI (SF-295 CNS) | TGI (SF-539 CNS) | TGI (SK-MEL-2 melanoma) | TGI (SK-MEL-28 melanoma) | TGI (SK-MEL-5 melanoma) | TGI (SK-OV-3 ovarian) | TGI (SN12C renal) | TGI (SNB-19 CNS) | TGI (SNB-75 CNS) | TGI (SNB-78 CNS) | TGI (SR leukemia) | TGI (SW-620 colon) | TGI (TK-10 renal) | TGI (U251 CNS) | TGI (UACC-257 melanoma) | TGI (UACC-62 melanoma) | TGI (UO-31 renal) | TGI (XF 498 CNS)

COc1ccc(CN2C(=O)C(Cc3cc(OC)c(OC)c(C)c3OC)NC(=O)/C2=C/c2cc(OC)c(OC)c(C)c2OC)cc1 (stereo unspecified)
60.6 µM: TGI (MOLT-4 leukemia)
83.1 µM: TGI (TK-10 renal)
65.2 µM: TGI (HOP-18 NSCLC)
90.9 µM: TGI (HCC-2998 colon)
71.2 µM: TGI (RXF 393 renal)
50 µM: TGI (NCI-H522 lung)
47.4 µM: TGI (COLO 205 colon)
74 µM: TGI (UO-31 renal)
> 100 µM: TGI (786-0 renal) | TGI (A549 NSCLC) | TGI (ACHN renal) | TGI (DLD-1 colon) | TGI (EKVX NSCLC) | TGI (HOP-62 NSCLC) | TGI (IGROV1 ovarian) | TGI (K-562 leukemia) | TGI (KM12 colon) | TGI (LOX IMVI melanoma) | TGI (LXFL 529 NSCLC) | TGI (NCI-H23 lung) | TGI (OVCAR-5 ovarian) | TGI (OVCAR-8 ovarian) | TGI (RXF-631 renal) | TGI (SF-268 CNS) | TGI (SF-295 CNS) | TGI (SF-539 CNS) | TGI (SK-MEL-28 melanoma) | TGI (SK-OV-3 ovarian) | TGI (SN12C renal) | TGI (SNB-75 CNS) | TGI (SW-620 colon) | TGI (U251 CNS) | TGI (UACC-257 melanoma) | TGI (UACC-62 melanoma)
59.2 µM: TGI (KM20L2 colon)
97.6 µM: TGI (A498 renal)
60.7 µM: TGI (HCT-116 colon) | TGI (SR leukemia)
34.5 µM: TGI (SK-MEL-5 melanoma)
82.2 µM: TGI (OVCAR-3 ovarian)
97.3 µM: TGI (DMS 114 small cell lung)
37.7 µM: TGI (M19-MEL melanoma)
57 µM: TGI (NCI-H460 lung)
71.1 µM: TGI (CCRF-CEM leukemia)
70.2 µM: TGI (RPMI-8226 leukemia)
45.8 µM: TGI (HL-60(TB) leukemia)
67.7 µM: TGI (HOP-92 NSCLC)
43.2 µM: TGI (SK-MEL-2 melanoma)
60.2 µM: TGI (NCI-H226 lung)
66.2 µM: TGI (HT29 colon)
82.5 µM: TGI (OVCAR-4 ovarian)
67.8 µM: TGI (MALME-3M melanoma)
96.9 µM: TGI (M14 melanoma)

O=C(CC(=O)C(=O)Nc1ccccc1)CC(c1ccccc1)c1c(O)c2ccccc2oc1=O (stereo unspecified)
> 100 µM: TGI (786-0 renal) | TGI (A498 renal) | TGI (A549 NSCLC) | TGI (ACHN renal) | TGI (CAKI-1 renal) | TGI (CCRF-CEM leukemia) | TGI (COLO 205 colon) | TGI (DLD-1 colon) | TGI (DMS 114 small cell lung) | TGI (DMS 273 small cell lung) | TGI (EKVX NSCLC) | TGI (HCC-2998 colon) | TGI (HCT-116 colon) | TGI (HCT-15 colon) | TGI (HL-60(TB) leukemia) | TGI (HOP-18 NSCLC) | TGI (HOP-92 NSCLC) | TGI (HT29 colon) | TGI (IGROV1 ovarian) | TGI (K-562 leukemia) | TGI (KM12 colon) | TGI (KM20L2 colon) | TGI (LOX IMVI melanoma) | TGI (M14 melanoma) | TGI (M19-MEL melanoma) | TGI (MALME-3M melanoma) | TGI (MOLT-4 leukemia) | TGI (NCI-H226 lung) | TGI (NCI-H460 lung) | TGI (NCI-H522 lung) | TGI (OVCAR-3 ovarian) | TGI (OVCAR-5 ovarian) | TGI (RXF 393 renal) | TGI (RXF-631 renal) | TGI (SF-268 CNS) | TGI (SF-295 CNS) | TGI (SF-539 CNS) | TGI (SK-MEL-2 melanoma) | TGI (SK-MEL-28 melanoma) | TGI (SK-MEL-5 melanoma) | TGI (SK-OV-3 ovarian) | TGI (SNB-19 CNS) | TGI (SNB-75 CNS) | TGI (SW-620 colon) | TGI (TK-10 renal) | TGI (UACC-62 melanoma) | TGI (UO-31 renal)

From PubChem BioAssay (NCI)
